What follows are targets tested with NC(=O)CCCCC1CCSS1 [lipoamide] (assay: thermal stability z-score vs DMSO; higher = more thermally stabilized by treatment). Conditions: HeLa; lipoamide concentration 100 µM; arsenate co-treatment: 1 mM arsenate 1 h.
Experimental: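 Cellular thermal proteome profiling in HeLa cells. Cells were treated with 100 µM lipoamide for 1 h, with or without 1 mM arsenate for a further 1 h, then heated to ten temperatures (37-66.3 °C), and soluble protein was quantified by TMT mass spectrometry relative to 0.1% DMSO controls. The thermal stability score (sum of log2 fold changes minus the abundance score) was transformed to a z-score; mean of n = 3 experiments.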
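Further: each temperature applied for 3 min, abundance score taken as mean log2 fold change at the two lowest temperatures, z-score obtained by mean subtraction and division by SD.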

Sequence of UniProt Q9NQG1 (Q9NQG1 whole entry): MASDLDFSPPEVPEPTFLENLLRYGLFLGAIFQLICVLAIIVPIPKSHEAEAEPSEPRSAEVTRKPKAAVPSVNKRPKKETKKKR
Sequence of UniProt Q9Y673 (Q9Y673 whole entry): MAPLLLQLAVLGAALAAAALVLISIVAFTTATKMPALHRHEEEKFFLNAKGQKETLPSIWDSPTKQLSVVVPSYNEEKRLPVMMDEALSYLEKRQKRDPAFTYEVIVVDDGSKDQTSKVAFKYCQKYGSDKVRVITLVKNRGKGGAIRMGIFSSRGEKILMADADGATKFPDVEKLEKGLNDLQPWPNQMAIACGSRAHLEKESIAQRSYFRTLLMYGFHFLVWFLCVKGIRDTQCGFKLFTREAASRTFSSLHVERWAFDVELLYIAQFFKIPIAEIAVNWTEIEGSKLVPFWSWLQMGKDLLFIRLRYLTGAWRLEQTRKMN
Sequence of UniProt Q9NZ08 (Q9NZ08 whole entry): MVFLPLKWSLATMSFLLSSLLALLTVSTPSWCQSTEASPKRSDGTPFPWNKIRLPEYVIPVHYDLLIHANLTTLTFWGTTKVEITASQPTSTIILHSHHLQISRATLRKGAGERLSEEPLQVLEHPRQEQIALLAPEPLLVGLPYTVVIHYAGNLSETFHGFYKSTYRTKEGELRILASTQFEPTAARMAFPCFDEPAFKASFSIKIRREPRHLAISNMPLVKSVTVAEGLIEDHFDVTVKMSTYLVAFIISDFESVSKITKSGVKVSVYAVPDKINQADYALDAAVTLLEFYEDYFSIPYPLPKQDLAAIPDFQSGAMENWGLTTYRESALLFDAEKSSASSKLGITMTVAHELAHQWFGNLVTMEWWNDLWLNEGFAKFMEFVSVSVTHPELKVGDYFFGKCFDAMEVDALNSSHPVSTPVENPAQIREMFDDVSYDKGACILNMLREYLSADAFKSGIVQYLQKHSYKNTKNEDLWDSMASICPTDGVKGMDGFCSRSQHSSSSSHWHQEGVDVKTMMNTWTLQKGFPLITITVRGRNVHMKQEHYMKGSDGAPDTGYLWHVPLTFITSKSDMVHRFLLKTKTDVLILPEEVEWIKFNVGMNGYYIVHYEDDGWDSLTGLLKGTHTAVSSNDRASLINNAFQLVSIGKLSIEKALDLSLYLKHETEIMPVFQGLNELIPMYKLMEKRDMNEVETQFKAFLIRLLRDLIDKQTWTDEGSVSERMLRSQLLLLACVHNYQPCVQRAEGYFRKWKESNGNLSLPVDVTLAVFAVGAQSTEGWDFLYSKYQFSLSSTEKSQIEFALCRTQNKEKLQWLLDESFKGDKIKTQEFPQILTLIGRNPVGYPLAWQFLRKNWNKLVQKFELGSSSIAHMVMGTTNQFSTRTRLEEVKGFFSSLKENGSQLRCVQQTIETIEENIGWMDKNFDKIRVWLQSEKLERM
Sequence of UniProt P62995 (P62995 whole entry): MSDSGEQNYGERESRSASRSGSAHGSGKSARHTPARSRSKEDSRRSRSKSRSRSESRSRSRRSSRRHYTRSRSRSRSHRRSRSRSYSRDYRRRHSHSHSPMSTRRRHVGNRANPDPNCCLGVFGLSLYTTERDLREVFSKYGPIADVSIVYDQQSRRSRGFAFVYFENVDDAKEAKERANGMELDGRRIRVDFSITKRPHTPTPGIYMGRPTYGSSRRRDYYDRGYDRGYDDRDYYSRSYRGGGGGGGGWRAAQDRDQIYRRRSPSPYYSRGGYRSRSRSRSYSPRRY
Sequence of UniProt P48449 (P48449 whole entry): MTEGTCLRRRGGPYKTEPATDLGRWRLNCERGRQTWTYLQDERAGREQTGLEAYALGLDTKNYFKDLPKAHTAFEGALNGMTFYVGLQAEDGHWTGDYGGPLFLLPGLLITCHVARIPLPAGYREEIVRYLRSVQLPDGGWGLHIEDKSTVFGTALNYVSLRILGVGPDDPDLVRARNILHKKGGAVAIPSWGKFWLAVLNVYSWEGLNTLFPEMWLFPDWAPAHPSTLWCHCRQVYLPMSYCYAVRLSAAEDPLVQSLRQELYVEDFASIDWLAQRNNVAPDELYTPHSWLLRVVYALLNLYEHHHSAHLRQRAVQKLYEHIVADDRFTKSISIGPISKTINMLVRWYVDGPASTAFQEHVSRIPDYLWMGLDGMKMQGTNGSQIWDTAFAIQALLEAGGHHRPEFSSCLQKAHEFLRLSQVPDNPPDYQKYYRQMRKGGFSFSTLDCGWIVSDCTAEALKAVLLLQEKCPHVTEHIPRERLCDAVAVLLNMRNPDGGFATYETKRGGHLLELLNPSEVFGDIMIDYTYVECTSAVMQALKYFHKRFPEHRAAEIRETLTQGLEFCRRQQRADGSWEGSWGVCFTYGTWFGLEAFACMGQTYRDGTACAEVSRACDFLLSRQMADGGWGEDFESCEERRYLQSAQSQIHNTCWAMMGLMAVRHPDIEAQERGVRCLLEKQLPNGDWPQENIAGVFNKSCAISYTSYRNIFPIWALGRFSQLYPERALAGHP
Sequence of UniProt P61024 (P61024 whole entry): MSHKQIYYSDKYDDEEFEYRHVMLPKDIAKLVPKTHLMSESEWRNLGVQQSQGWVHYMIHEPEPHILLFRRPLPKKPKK
Sequence of UniProt P49821 (P49821 whole entry): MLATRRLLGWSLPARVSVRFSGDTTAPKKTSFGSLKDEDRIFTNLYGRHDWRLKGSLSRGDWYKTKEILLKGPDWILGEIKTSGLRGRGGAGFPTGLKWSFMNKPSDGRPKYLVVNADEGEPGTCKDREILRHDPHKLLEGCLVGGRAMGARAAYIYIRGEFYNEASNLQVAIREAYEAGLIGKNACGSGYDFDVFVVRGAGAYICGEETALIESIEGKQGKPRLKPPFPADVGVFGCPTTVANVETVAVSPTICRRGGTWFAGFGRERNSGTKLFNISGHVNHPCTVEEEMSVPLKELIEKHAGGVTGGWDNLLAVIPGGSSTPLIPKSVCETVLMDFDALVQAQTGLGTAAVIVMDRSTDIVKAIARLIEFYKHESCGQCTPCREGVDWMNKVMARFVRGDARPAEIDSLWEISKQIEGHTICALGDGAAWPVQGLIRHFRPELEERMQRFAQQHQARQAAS
Sequence of UniProt Q9Y2C4 (Q9Y2C4 whole entry): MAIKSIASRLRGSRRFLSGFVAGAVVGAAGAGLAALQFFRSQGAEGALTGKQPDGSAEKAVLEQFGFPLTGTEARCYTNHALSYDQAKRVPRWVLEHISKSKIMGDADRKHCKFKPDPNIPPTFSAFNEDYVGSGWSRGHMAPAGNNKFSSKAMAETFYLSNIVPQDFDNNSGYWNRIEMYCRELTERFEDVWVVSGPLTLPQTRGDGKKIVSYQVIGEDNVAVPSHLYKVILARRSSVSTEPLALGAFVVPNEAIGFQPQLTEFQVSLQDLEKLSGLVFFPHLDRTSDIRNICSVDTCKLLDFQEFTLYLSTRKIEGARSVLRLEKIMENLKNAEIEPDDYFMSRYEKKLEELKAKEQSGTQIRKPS
Sequence of UniProt Q99943 (Q99943 whole entry): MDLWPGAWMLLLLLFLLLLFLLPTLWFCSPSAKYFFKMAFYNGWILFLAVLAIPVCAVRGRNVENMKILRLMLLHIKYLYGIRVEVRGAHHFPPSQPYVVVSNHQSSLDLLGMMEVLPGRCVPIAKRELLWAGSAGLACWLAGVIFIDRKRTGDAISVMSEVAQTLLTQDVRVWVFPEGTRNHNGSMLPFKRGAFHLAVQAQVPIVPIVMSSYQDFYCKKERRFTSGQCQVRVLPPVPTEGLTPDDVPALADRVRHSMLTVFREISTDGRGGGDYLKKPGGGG
Sequence of UniProt P60891 (P60891 whole entry): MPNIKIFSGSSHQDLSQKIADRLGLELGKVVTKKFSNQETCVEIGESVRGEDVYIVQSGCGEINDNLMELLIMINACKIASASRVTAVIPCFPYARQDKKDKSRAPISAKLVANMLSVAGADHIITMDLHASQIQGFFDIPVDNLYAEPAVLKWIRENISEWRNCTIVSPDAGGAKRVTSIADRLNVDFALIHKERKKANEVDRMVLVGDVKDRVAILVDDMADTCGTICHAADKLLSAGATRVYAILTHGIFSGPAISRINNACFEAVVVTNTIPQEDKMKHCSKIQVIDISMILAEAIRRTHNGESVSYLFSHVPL
Sequence of UniProt O75351 (O75351 whole entry): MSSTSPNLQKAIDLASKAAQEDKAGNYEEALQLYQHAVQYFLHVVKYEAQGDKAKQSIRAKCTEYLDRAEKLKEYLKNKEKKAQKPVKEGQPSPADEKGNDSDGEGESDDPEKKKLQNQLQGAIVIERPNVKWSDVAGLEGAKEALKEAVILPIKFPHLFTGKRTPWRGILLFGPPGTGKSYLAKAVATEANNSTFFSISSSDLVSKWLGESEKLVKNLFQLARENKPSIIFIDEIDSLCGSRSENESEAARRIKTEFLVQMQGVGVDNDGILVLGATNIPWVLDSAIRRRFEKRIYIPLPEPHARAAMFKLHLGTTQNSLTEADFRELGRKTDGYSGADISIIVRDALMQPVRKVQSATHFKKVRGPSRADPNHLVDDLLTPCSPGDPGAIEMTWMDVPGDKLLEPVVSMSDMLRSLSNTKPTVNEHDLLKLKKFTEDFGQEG
Sequence of UniProt Q9UBB4 (Q9UBB4 whole entry): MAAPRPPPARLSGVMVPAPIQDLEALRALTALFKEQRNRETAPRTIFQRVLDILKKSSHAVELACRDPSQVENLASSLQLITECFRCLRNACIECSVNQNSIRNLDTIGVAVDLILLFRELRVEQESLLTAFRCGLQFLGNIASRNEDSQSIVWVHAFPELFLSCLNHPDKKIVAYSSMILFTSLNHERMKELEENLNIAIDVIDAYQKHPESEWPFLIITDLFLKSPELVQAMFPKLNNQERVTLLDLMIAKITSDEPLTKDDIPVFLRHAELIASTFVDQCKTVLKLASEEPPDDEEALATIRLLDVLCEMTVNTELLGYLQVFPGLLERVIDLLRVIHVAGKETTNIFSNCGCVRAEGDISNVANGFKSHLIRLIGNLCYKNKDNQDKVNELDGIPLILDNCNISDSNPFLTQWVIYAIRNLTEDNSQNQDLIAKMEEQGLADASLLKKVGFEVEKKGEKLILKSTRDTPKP
Sequence of UniProt Q9NRR8 (Q9NRR8 whole entry): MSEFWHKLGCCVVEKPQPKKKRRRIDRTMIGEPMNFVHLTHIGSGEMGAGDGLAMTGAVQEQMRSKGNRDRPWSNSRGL

Target | thermal stability z-score
TM9SF3 (UniProt Q9HD45) | -0.451
IPO11 (UniProt Q9UI26) | -0.322
CCDC115 (UniProt Q96NT0) | 0.112
VPS50 (UniProt Q96JG6) | -0.564
CRIP1 (UniProt P50238) | 1.49
CDC42SE1 (UniProt Q9NRR8) | -0.0857
RPL38 (UniProt P63173) | 0.982
SKIV2L2 (UniProt P42285) | 0.46
MRPS15 (UniProt P82914) | 0.673
SMTN (UniProt P53814) | 0.0165
IFT140 (UniProt Q96RY7) | -0.182
TNK1 (UniProt Q13470) | 0.0556
RAN (UniProt P62826) | 0.345
PAK2 (UniProt Q13177) | -0.044
UBAC2 (UniProt Q8NBM4) | -0.594
VPS4B (UniProt O75351) | 0.854
EXOG (UniProt Q9Y2C4) | -0.359
ITPR1 (UniProt Q14643) | -0.434
MANBAL (UniProt Q9NQG1) | 1.06
YBX3 (UniProt P16989) | 0.153
RRP9 (UniProt O43818) | -0.195
NEDD1 (UniProt Q8NHV4) | 0.124
LSS (UniProt P48449) | 0.724
CYB5R4 (UniProt Q7L1T6) | 0.477
P4HA1 (UniProt P13674) | -4.31
EEF2K (UniProt O00418) | -0.0522
TMEM11 (UniProt P17152) | -0.251
ALG5 (UniProt Q9Y673) | 0.39

Target | thermal stability z-score
OSBPL3 (UniProt Q9H4L5) | -1.67
DUSP23 (UniProt Q9BVJ7) | 1.22
ATXN10 (UniProt Q9UBB4) | 0.258
ATP2C1 (UniProt P98194) | -1.04
AGPAT1 (UniProt Q99943) | -0.0471
PDE8A (UniProt O60658) | 0.244
PDRG1 (UniProt Q9NUG6) | 0.0914
CKS1B (UniProt P61024) | 0.525
HPD (UniProt P32754) | 0.25
KPNB1 (UniProt Q14974) | -0.211
NXF1 (UniProt Q9UBU9) | 0.0906
SLC9A1 (UniProt P19634) | -0.174
XPOT (UniProt O43592) | -0.645
SUPT16H (UniProt Q9Y5B9) | 1.01
AFAP1 (UniProt Q8N556) | 0.411
XAB2 (UniProt Q9HCS7) | -0.104
ERAP1 (UniProt Q9NZ08) | -2.65
TRA2B (UniProt P62995) | 2.37
PRPS1 (UniProt P60891) | 0.0132
NDUFV1 (UniProt P49821) | 0.281
APTX (UniProt Q7Z2E3) | 0.0235
BECN1 (UniProt Q14457) | -0.39
EHD4 (UniProt Q9H223) | 0.435
RPS13 (UniProt P62277) | 0.784
CRTAP (UniProt O75718) | -3.99
TBC1D15 (UniProt Q8TC07) | -0.559
RBM25 (UniProt P49756) | -0.0516

Same assay, conditions: HeLa; lipoamide concentration 100 µM; arsenate co-treatment: none

Target | thermal stability z-score
TM9SF3 (UniProt Q9HD45) | -0.0174
IPO11 (UniProt Q9UI26) | -0.104
CCDC115 (UniProt Q96NT0) | 0.611
VPS50 (UniProt Q96JG6) | -0.541
CRIP1 (UniProt P50238) | 1.68
CDC42SE1 (UniProt Q9NRR8) | 0.383
RPL38 (UniProt P63173) | 0.439
SKIV2L2 (UniProt P42285) | 0.334
MRPS15 (UniProt P82914) | 0.571
SMTN (UniProt P53814) | 0.00756
IFT140 (UniProt Q96RY7) | -0.038
TNK1 (UniProt Q13470) | 0.223
RAN (UniProt P62826) | -0.105
PAK2 (UniProt Q13177) | 0.283
UBAC2 (UniProt Q8NBM4) | -0.778
VPS4B (UniProt O75351) | 0.498
EXOG (UniProt Q9Y2C4) | -0.451
ITPR1 (UniProt Q14643) | -0.461
MANBAL (UniProt Q9NQG1) | 1.59
YBX3 (UniProt P16989) | -0.0445
RRP9 (UniProt O43818) | 0.108
NEDD1 (UniProt Q8NHV4) | 0.153
LSS (UniProt P48449) | 0.345
CYB5R4 (UniProt Q7L1T6) | 0.1
P4HA1 (UniProt P13674) | -3.57
EEF2K (UniProt O00418) | -0.0721
TMEM11 (UniProt P17152) | -0.145
ALG5 (UniProt Q9Y673) | -0.1

Target | thermal stability z-score
OSBPL3 (UniProt Q9H4L5) | -0.909
DUSP23 (UniProt Q9BVJ7) | 0.839
ATXN10 (UniProt Q9UBB4) | 0.374
ATP2C1 (UniProt P98194) | -0.728
AGPAT1 (UniProt Q99943) | -0.591
PDE8A (UniProt O60658) | 0.225
PDRG1 (UniProt Q9NUG6) | -0.238
CKS1B (UniProt P61024) | 0.603
HPD (UniProt P32754) | 0.117
KPNB1 (UniProt Q14974) | 0.374
NXF1 (UniProt Q9UBU9) | 0.0765
SLC9A1 (UniProt P19634) | -0.629
XPOT (UniProt O43592) | -0.112
SUPT16H (UniProt Q9Y5B9) | 1.11
AFAP1 (UniProt Q8N556) | -0.0977
XAB2 (UniProt Q9HCS7) | -0.113
ERAP1 (UniProt Q9NZ08) | -2.68
TRA2B (UniProt P62995) | -0.56
PRPS1 (UniProt P60891) | -0.285
NDUFV1 (UniProt P49821) | 0.0892
APTX (UniProt Q7Z2E3) | 0.0974
BECN1 (UniProt Q14457) | -0.238
EHD4 (UniProt Q9H223) | 0.326
RPS13 (UniProt P62277) | 0.463
CRTAP (UniProt O75718) | -3.27
TBC1D15 (UniProt Q8TC07) | -0.646
RBM25 (UniProt P49756) | 0.34

Each target was assayed with O=[As]([O-])(O)O.[K+] [potassium arsenate] in the same assay as above. Conditions: HeLa; arsenate concentration 1 mM.
Experimental: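 Cellular thermal proteome profiling in HeLa cells treated with 1 mM arsenate for 1 h (DMSO pretreatment), heated to ten temperatures (37-66.3 °C). Soluble protein was quantified by TMT mass spectrometry relative to DMSO controls; the thermal stability score was transformed to a z-score; mean of n = 3 experiments.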

Target | thermal stability z-score
TM9SF3 (UniProt Q9HD45) | 0.511
IPO11 (UniProt Q9UI26) | -0.0713
CCDC115 (UniProt Q96NT0) | -0.392
VPS50 (UniProt Q96JG6) | 0.134
CRIP1 (UniProt P50238) | 1.18
CDC42SE1 (UniProt Q9NRR8) | -0.154
RPL38 (UniProt P63173) | -0.704
SKIV2L2 (UniProt P42285) | 0.0276
MRPS15 (UniProt P82914) | 0.555
SMTN (UniProt P53814) | -0.4
IFT140 (UniProt Q96RY7) | 0.083
TNK1 (UniProt Q13470) | -0.0895
RAN (UniProt P62826) | 0.547
PAK2 (UniProt Q13177) | -0.165
UBAC2 (UniProt Q8NBM4) | -0.0559
VPS4B (UniProt O75351) | 0.314
EXOG (UniProt Q9Y2C4) | 0.587
ITPR1 (UniProt Q14643) | -0.46
MANBAL (UniProt Q9NQG1) | 0.0493
YBX3 (UniProt P16989) | -0.672
RRP9 (UniProt O43818) | -0.755
NEDD1 (UniProt Q8NHV4) | 0.216
LSS (UniProt P48449) | -0.00616
CYB5R4 (UniProt Q7L1T6) | -0.243
P4HA1 (UniProt P13674) | 1.27
EEF2K (UniProt O00418) | -0.0657
TMEM11 (UniProt P17152) | -1.1
ALG5 (UniProt Q9Y673) | 0.347

Target | thermal stability z-score
OSBPL3 (UniProt Q9H4L5) | -0.969
DUSP23 (UniProt Q9BVJ7) | -0.0505
ATXN10 (UniProt Q9UBB4) | -1.03
ATP2C1 (UniProt P98194) | -1.37
AGPAT1 (UniProt Q99943) | 0.0795
PDE8A (UniProt O60658) | 0.167
PDRG1 (UniProt Q9NUG6) | 0.203
CKS1B (UniProt P61024) | 0.573
HPD (UniProt P32754) | 1.61
KPNB1 (UniProt Q14974) | 0.0471
NXF1 (UniProt Q9UBU9) | -0.127
SLC9A1 (UniProt P19634) | 0.274
XPOT (UniProt O43592) | -0.212
SUPT16H (UniProt Q9Y5B9) | 0.819
AFAP1 (UniProt Q8N556) | -0.957
XAB2 (UniProt Q9HCS7) | 0.256
ERAP1 (UniProt Q9NZ08) | 0.97
TRA2B (UniProt P62995) | -0.649
PRPS1 (UniProt P60891) | -1.1
NDUFV1 (UniProt P49821) | 0.585
APTX (UniProt Q7Z2E3) | -0.253
BECN1 (UniProt Q14457) | -0.408
EHD4 (UniProt Q9H223) | -0.477
RPS13 (UniProt P62277) | -1.11
CRTAP (UniProt O75718) | 0.92
TBC1D15 (UniProt Q8TC07) | -0.276
RBM25 (UniProt P49756) | -0.454

— the supplement of paper PMC12463676, “Small-molecule dissolution of stress granules by redox modulation benefits ALS models” (Nature Chemical Biology, 2025)
